From patent US20100184809A1, “Heterocyclic FXR Binding Compounds” (PHENEX PHARMACEUTICALS AG, priority 2006, published 2010) come the findings set out here.

The nature of one data set: PAMPA permeability assay. As to conditions: % of compound found in the receiver compartment after 16 hours; PBS pH 7.4, 5% DMSO, 23° C. Type of data set: in vitro ADME. The protocol: Artificial membrane permeability was determined as follows: Tested compounds were dissolved to 10 mM in 100% DMSO. Permeability of compounds was measured in PBS (pH 7.4), 5% DMSO at 23° C. Safire (Tecan) plate reader was used for measurement the UV/Vis absorption. Protocol: Dilute stocks of tested compounds and controls with PBS to 1.67 mM and mix well by pipeitting, add 280 μl of PBS, 5% DMSO to acceptor plate, add 5 μl of 2% L-α-Phosphatidylcholine suspension in dodecane to the membrane of donor plate, Immediately add 98 μl of PBS to donor plate and make the sandwich with acceptor plate. Add 42 μl of tested compounds and controls dilutions to […], cover the plate, place into camera and incubate for 16 hours. Make the equilibrium plate, add 225 μl of PBS, 3,7% DMSO and 25 μl of tested compounds and controls dilutions to UV plate. After 16 hours pull the donor plate out and transfer 250 μl from acceptor plate to UV plate. Scan UV plate on Safire (Tecan) plate reader from […]. Permeability is reported in % of compound found in the receiver compartment after the incubation period.
A general note: In PAMPA a lipid-coated filter parts donor from acceptor wells.

Data set [1] is described as follows: Human microsomal stability assay. Type of data set: in vitro ADME. As to conditions: liver microsomes, 0.5 mg microsomal protein/ml, 10 μM compound, 37° C., read-out: Human liver microsome clearance. The protocol: Compound stability towards human liver microsomes was determined as follows: Human liver microsomal suspension (1 ml) prepared in reaction buffer at a concentration of 0.5 mg microsomal protein/ml was preincubated for 3 min at 37° C. with a NADPH-generating system (10 mM glucose 6-phosphate, 1 mM NADP+, and 1 unit/ml yeast glucose-6-phosphate dehydrogenase). The final compounds concentration is 10 μM. Boiled microsomes (5 min) served as a control. Samples (50 μl) were then taken after 0, 5, 15, 30, 45, 120 min, into 200 μl acetonitrile, centrifuged for 15 min at 8000×g to remove the protein pellet. Samples were analyzed for parent compound by HPLC. Method development: All samples for metabolic stability experiments were analyzed by HPLC. Only parent compounds were analyzed. Data analysis: The percentages of the parent compounds remaining was defined as the ratio of the parent compounds peak area at a specific point and the peak area at the first time point multiplied by 100%. The metabolic stability was evaluated by plotting the natural logarithm of the percentage parent compounds remaining versus time and performing linear regression and finally reported as clearance [μl/min/mg protein] which is reversed proportional to compound stability. Applying this protocol, Microsomal stability of examples and reference compounds was determined. (Table 7)
A general note: Liver microsomes are a subcellular fraction often used to study metabolism.

Data set [2] can be described thus: Rat microsomal stability assay. The class given is in vitro ADME. As to conditions: liver microsomes, 37° C., NADPH, 45 minute, read-out: Rat liver microsome clearance. The protocol: Compound stability towards rat liver microsomes was determined as follows: The microsomes are incubated with the test compound at 37° C. in the presence of the co-factor, NADPH, which initiates the reaction. The reaction is terminated by the addition of methanol. Following centrifugation, the supernatant is analysed on the LC-MS/MS. The disappearance of test compound is monitored over a 45 minute time period. The In peak area ratio (compound peak area/internal standard peak area) is plotted against time and the gradient of the line determined. Finally, Intrinsic clearance CLint is computed by the following equations: elimination rate konstant (k)=−gradient; t1/2 (min)=0.693/k; V (μl/mg)=volume of incubation (μl)/protein in incubation (mg); CLint (μl/min/mg protein)=V*0.693/t1/2.

The nature of data set [3]: Pharmacokinetic parameters in C57/BLKS/J(mLepr^db/db) mice (plasma concentration after peroral gavage). The class given is in vivo. To be noted: mouse, oral, perorally by gavage 25 mg/kg, male C57/BLKS/J(mLepr^db/db) mice, read-out: mean plasma conc. The protocol:
Information on the rate and extent of absorption of the test compounds were generated using two distinct animal models, C57/BI/6J and C57/BLKS/J(mLepr^db/db) mice. Compounds were applied perorally by gavage at 10 mg/kg each to male 8 weeks old C57BL/6 mice and plasma concentrations of the test items were determined by LC-MS/MS (Table 11). Alternatively, compounds were applied perorally by gavage at 25 mg/kg each to 16 weeks old male C57/BLKS/J(mLepr^db/db) mice and plasma concentrations of the test items were determined 120 min after gavage by LC-MS/MS (Table 12).
A solution of 20 mg/ml of each test item was produced by diluting them in the vehicle, 30% HPBCD (hydroxypropyl-beta-cyclodextrin) in 20 mM phosphate buffer pH7.0 (v/w). These solutions were stirred overnight at room temperature and heated to 60° C. for 10 minutes, resulting in a full solubilization. The application was performed by administrating the solution perorally to the mice, with an application volume of 10 ml/kg. For each time point five mice were used. Blood samples were obtained by sacrificing animals for each time point followed by cardiac puncture. […] An aliquot of the particle-free supernatant was transferred to 200 μl sampler vials and subsequently subjected to LC MS/MS for quantification.

A further data set can be described thus: Caco-2 permeability. The class given is in vitro ADME. As to conditions: human, apical to basolateral. As for the experimental part:
Caco-2 cells are widely used as an in vitro model for predicting human drug absorption. The Caco-2 cell line is derived from a human colorectal carcinoma, and when cultured, the cells spontaneously differentiate into monolayers of polarised enterocytes. The cells are seeded on Transwell™ plates and form a confluent monolayer over 20 days prior to the experiment. On day 20, the test compound is added to the apical side of the membrane and the transport of the compound across the monolayer is monitored over a 2 hour time period. To study drug efflux, it is also necessary to investigate transport of the compound from the basolateral compartment to the apical compartment. The permeability coefficient (Papp) is calculated from the following equation: […]
Where dQ/dt is the rate of permeation of the drug across the cells, CO is the donor compartment concentration at time zero and A is the area of the cell monolayer.
For orientation: Caco-2 cells form a polarised layer with tight junctions and transporters.

As usually defined, the Papp A→B is how fast a substance crosses the layer from the apical side.

Regarding `CC(C)c1onc(-c2c(Cl)cccc2Cl)c1COc1ccc(/C=C/c2cccc(C(=O)O)c2)c(Cl)c1` [Compound B, reference compound], the “PAMPA Permeability” value in “PAMPA permeability assay” amounted to 7%. In addition, in data set [1], the microsomal CLint at 10 μM was found to be 100 µL/min/mg. Besides, the microsomal CLint in data set [2] is 310 µL/min/mg. The concentration at 120 min in data set [3] stood at 164 ng/mL.

As for `Cc1nc(OCc2c(-c3c(Cl)cccc3Cl)noc2C(C)C)ccc1N(C)S(=O)(=O)c1ccc(C(=O)O)cc1` [Example 4, 4-(N-(6-((3-(2,6-dichlorophenyl)-5-isopropylisoxazol-4-yl)methoxy)-2-methylpyridin-3-yl)—N-methylsulfamoyl)benzoic acid], the “PAMPA Permeability” value in the data set “PAMPA permeability assay” was 50%. For the same compound, the Papp A→B at 2 h in “Caco-2 permeability” was 30 ×10⁻⁶ cm/s. Further, the microsomal CLint at 10 μM in data set [1] came to 62 µL/min/mg.

`CC(C)c1onc(-c2c(Cl)cccc2Cl)c1COc1ccc(N(C)C(=O)c2ccc(C(=O)O)cc2)c(C(F)(F)F)n1` [Example 7, N-{6-[3-(2,6-dichloro-phenyl)-5-isopropyl-isoxazol-4-ylmethoxy]-2-trifluoromethyl-pyridin-3-yl}-N-methyl-terephthalamic acid] showed a Papp A→B at 2 h in “Caco-2 permeability” of 32 ×10⁻⁶ cm/s. In addition, the microsomal CLint at 10 μM in data set [1] came to 14 µL/min/mg. In data set [2], the microsomal CLint was 45 µL/min/mg.

As to `CC(C)c1onc(-c2c(Cl)cccc2Cl)c1COc1ccc(N(C)Cc2ccc(C(=O)O)cc2)c(C(F)(F)F)n1` [Example 28, 4(((6-((3-(2,6-Dichlorophenyl)-5-isopropylisoxazol-4-yl)methoxy)-2-(trifluoromethyl)pyridin-3-yl)(methyl)amino)methyl)benzoic acid], the concentration at 120 min in data set [3] stood at 287 ng/mL.
